Laboratory results as given in patent US20200017495A1, “NOVEL HETEROCYCLIC COMPOUNDS AND THEIR USE IN PREVENTING OR TREATING BACTERIAL INFECTIONS” (priority 2017, published 2020).
Read-outs that look alike come from different tables or passages of the source.

Key:
[1] = test system: Escherichia coli (ECO) isolates; assay: MIC of compounds alone and combined with antibacterials, broth microdilution (CLSI); type: cell-based
Procedure, shortened: (§1)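 Broth microdilution in cation-adjusted Mueller-Hinton broth, inoculum 5.10^5 CFU/mL, 16-20 h at 35° C in ambient air, on genotyped isolates. Compound MIC, alone or with an antibacterial, taken visually as lowest concentration preventing growth; antibacterial MIC determined at each compound concentration.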

[2] = test system: Enterobacter cloacae (ECL) isolates; assay: as above; type: cell-based
Procedure, shortened: as §1

SMILES: CO/N=C(\C(=O)N[C@@H]1C(=O)N2C(C(=O)O)=C(COC(N)=O)CS[C@H]12)c1ccco1 [FUR, Cefuroxime]
- MIC ([1]; strain ECO 4133, genotype TEM-30, OXA-1): 16 µg/mL
- MIC ([1]; strain ECO 5302, genotype TEM-1, OXA-1): 32 µg/mL
- MIC ([1]; strain ECO 131119, genotype TEM-1, OXA-48): 8 µg/mL
- MIC ([1]; strain ECO 180070, genotype TEM-1, CTX-M-15): >256 µg/mL
- MIC ([1]; strain ECO 190314, genotype CTX-M-1): >256 µg/mL
- MIC ([1]; strain ECO 190317, genotype TEM-1, SHV-12, CTX-M-15, OXA-1): >512 µg/mL
- MIC ([1]; strain ECO 190457, genotype CTX-M-15, OXA-1): >256 µg/mL
- MIC ([1]; strain ECO 190549, genotype CTX-M-1): >256 µg/mL
- MIC ([1]; strain ECO 200159, genotype TEM-1, CTX-M-14): >256 µg/mL
- MIC ([1]; strain ECO 200259, genotype CTX-M-14): >256 µg/mL
- MIC ([1]; strain ECO 200344, genotype CTX-M-1): >256 µg/mL
- MIC ([1]; strain ECO 260096, genotype CTX-M-132): >256 µg/mL
- MIC ([1]; strain ECO 260304, genotype CTX-M-15): >256 µg/mL
- MIC ([1]; strain ECO 260508, genotype TEM-1, CTX-M-15, OXA-1): >256 µg/mL
- MIC ([1]; strain ECO RGN238, genotype OXA-1): 16 µg/mL
- MIC ([1]; strain ECO UFR15, genotype TEM-1, OXA-48): 16 µg/mL
- MIC ([1]; strain ECO UFR16, genotype TEM-1, CTX-M-15, OXA-1, OXA-48): >256 µg/mL
- MIC ([1]; strain ECO UFR17, genotype TEM-1, CTX-M-15, CMY-2, OXA-1, OXA-181): >256 µg/mL
- MIC ([1]; strain ECO UFR18, genotype CTX-M-15, OXA-204): >256 µg/mL
- MIC ([1]; strain ECO UFR19, genotype CTX-M-15, CMY-2, OXA-1, OXA-204): >256 µg/mL
- MIC ([1]; strain ECO UFR20, genotype SHV-1, CTX-M-15, OXA-1, OXA-232): >256 µg/mL
- MIC ([1]; strain ECO UFR39, genotype CTX-M-15, NDM-1): >256 µg/mL
- MIC ([1]; strain ECO UFR61O, genotype TEM-1, KPC-2): >256 µg/mL
- MIC ([1]; strain ECO UFR62, genotype TEM-1, CTX-M-9, KPC-2): >256 µg/mL
- MIC ([1]; strain ECO UFR74, genotype SHV-1, DHA-1): >256 µg/mL
- MIC ([1]; strain ECO UFR86, genotype ompC-, ompF-): 64 µg/mL
- MIC ([1]; strain ECO UFR174, genotype TEM-1, KPC-2, OXA-1): >256 µg/mL
- MIC ([1]; strain ECO UFR175, genotype TEM-1, KPC-2, OXA-9): >256 µg/mL
- MIC ([1]; strain ECO UFR176, genotype KPC-3, OXA-9*): >256 µg/mL
- MIC ([1]; strain ECO UFR184, genotype CTX-M-15, CMY-4, OXA-1, OXA-204): >256 µg/mL
- MIC ([1]; strain ECO UFR185, genotype OXA-48): >256 µg/mL
- MIC ([1]; strain ECO UFR186, genotype TEM-1, CTX-M-14, OXA-48): >256 µg/mL
- MIC ([1]; strain ECO UFR187, genotype CTX-M-15, OXA-48): >256 µg/mL
- MIC ([1]; strain ECO UFR189, genotype TEM-1, CTX-M-15, OXA-48): >256 µg/mL
- MIC ([1]; strain ECO UFR190, genotype CTX-M-24, OXA-48): >256 µg/mL
- MIC ([1]; strain ECO UFR191, genotype TEM-1, CTX-M-24, OXA-48): >256 µg/mL
- MIC ([1]; strain ECO UFR207, genotype CTX-M-15): >256 µg/mL
- MIC ([1]; strain ECO UFR208, genotype SHV-12): >256 µg/mL
- MIC ([1]; strain ECO UFR209, genotype TEM-1, CTX-M-15): >256 µg/mL
- MIC ([1]; strain ECO UFR210, genotype SHV-12): >256 µg/mL
- MIC ([1]; strain ECO UFR211, genotype TEM-24): 64 µg/mL
- MIC ([1]; strain ECO UFR212, genotype CMY-2): >256 µg/mL
- MIC ([1]; strain ECO UFR218, genotype TEM-1, SHV-1, CTX-M-15): >256 µg/mL
- MIC ([2]; strain ECL 2185D, genotype OXA-163): >256 µg/mL
- MIC ([2]; strain ECL 190310, genotype AmpC): >256 µg/mL
- MIC ([2]; strain ECL 190408, genotype TEM-1, CTX-M-15, OXA-1): >256 µg/mL
- MIC ([2]; strain ECL 200138, genotype AmpC): >256 µg/mL
- MIC ([2]; strain ECL 200322, genotype TEM-1, CTX-M-15, OXA-1): >256 µg/mL
- MIC ([2]; strain ECL 260033, genotype AmpC): >256 µg/mL
- MIC ([2]; strain ECL 260253, genotype TEM-1, KPC-3): >256 µg/mL
- MIC ([2]; strain ECL 260323, genotype AmpC): >256 µg/mL
- MIC ([2]; strain ECL 260508, genotype TEM-1, CTX-M-15): >256 µg/mL
- MIC ([2]; strain ECL NEM146383, genotype AmpC): >256 µg/mL
- MIC ([2]; strain ECL P99, genotype AmpC): >512 µg/mL
- MIC ([2]; strain ECL UFR12, genotype CTX-M-9, OXA-48): >256 µg/mL
- MIC ([2]; strain ECL UFR13, genotype TEM-1, SHV-12, CTX-M-9, OXA-48): >256 µg/mL
- MIC ([2]; strain ECL UFR14, genotype TEM-1, SHV-12, CTX-M-15, DHA-1, OXA-1, OXA-48): >256 µg/mL
- MIC ([2]; strain ECL UFR60, genotype TEM-1, CTX-M-15, KPC-2): >256 µg/mL
- MIC ([2]; strain ECL UFR70, genotype TEM-1, CTX-M-15, CMY-2, OXA-1, Porin loss): >256 µg/mL
- MIC ([2]; strain ECL UFR84, genotype TEM-1, AmpC, OXA-1): >256 µg/mL
- MIC ([2]; strain ECL UFR85, genotype TEM-1, CTX-M-15, AmpC): >256 µg/mL
- MIC ([2]; strain ECL UFR194, genotype OXA-48): 32 µg/mL
- MIC ([2]; strain ECL UFR195, genotype TEM-1, CTX-M-15, OXA-1, OXA-48): >256 µg/mL
- MIC ([2]; strain ECL UFR196, genotype TEM-1, CTX-M-15, OXA-1, OXA-48): >256 µg/mL
- MIC ([2]; strain ECL UFR197, genotype TEM-1, CTX-M-15, OXA-1, OXA-48): >256 µg/mL
- MIC ([2]; strain ECL UFR198, genotype TEM-1, SHV-12, CTX-M-15, DHA-1, OXA-1, OXA-48): >256 µg/mL
- MIC ([2]; strain ECL UFR200, genotype TEM-1, SHV-12, KPC-2): >256 µg/mL

SMILES: COCC1=C(C(=O)O)N2C(=O)[C@@H](NC(=O)/C(=N\OC)c3csc(N)n3)[C@H]2SC1 [POD, Cefpodoxime]
- MIC ([1]; Escherichia coli, strain ECO 4133, genotype TEM-30, OXA-1, read-out: MIC): 2 µg/mL
- MIC ([1]; Escherichia coli, strain ECO 5302, genotype TEM-1, OXA-1, read-out: MIC): 4 µg/mL
- MIC ([1]; Escherichia coli, strain ECO 131119, genotype TEM-1, OXA-48, read-out: MIC): 1 µg/mL
- MIC ([1]; Escherichia coli, strain ECO 190317, genotype TEM-1, SHV-12, CTX-M-15, OXA-1, read-out: MIC): > 512 µg/mL
- MIC ([1]; Escherichia coli, strain ECO RGN238, genotype OXA-1, read-out: MIC): 2 µg/mL
- MIC ([1]; Escherichia coli, strain ECO UFR15, genotype TEM-1, OXA-48, read-out: MIC): 2 µg/mL
- MIC ([1]; Escherichia coli, strain ECO UFR86, genotype ompC-, ompF-, read-out: MIC): 4 µg/mL
- MIC ([1]; Escherichia coli, strain ECO UFR211, genotype TEM-24, read-out: MIC): 32 µg/mL
- MIC ([2]; Enterobacter cloacae, strain ECL P99, genotype AmpC, read-out: MIC): > 512 µg/mL
- MIC ([2]; Enterobacter cloacae, strain ECL UFR12, genotype CTX-M-9, OXA-48, read-out: MIC): 128 µg/mL
- MIC ([2]; Enterobacter cloacae, strain ECL UFR194, genotype OXA-48, read-out: MIC): 16 µg/mL
